Experimental data reported in patent US7163921B1, “Peptide derivatives and medicinal compositions” (Nippon Shinyaku Co., Ltd., priority 2000, dated 2007).
Marks after values point to notes of the source that are not given here.

Assays:
[1] = target: T1, human μ receptor (Homo sapiens, UniProt P35372); experiment: μ Receptor binding test ([3H] diprenorphine displacement); conditions: Ki for μ receptor divided by Ki for nociceptin receptor
T1 construct: purchased Receptor Biology
Procedure: A human μ receptor-expressing cell membrane preparation (Receptor Biology) was adjusted at the membrane protein level of 8.5 μg/mL in a Tris buffer [50 mM Tris-HCl (pH 7.8), 5 mM MgCl2, 1 mM EGTA, 0.1% BSA]. To this suspension, [^3H] diprenorphine (diluted to the final concentration of 0.13 nM in the Tris buffer) and a test substance were added, and the mixture was incubated at 25° C. for 90 minutes. Using a cell harvester and a washing solution [50 mM Tris-HCl (pH 7.8), 4° C.], the membrane was recovered onto the GF/B filter which had been pretreated with 0.3% PEI, and washed further 4 times. The filter was transferred into a vial, to which a scintillator was added, and then the radioactivity was measured using a liquid scintillation counter. A non-specific binding was regarded as a binding in the presence of 100 μM naloxone, and the difference between the total binding and the non-specific binding was regarded as the specific binding. Based on the % binding inhibition in the presence of a test substance, the IC50 was obtained and employed together with the Kd value of the [^3H] diprenorphine to calculate the Ki value of the test substance (mol/L; hereinafter referred to as M value). The M value was divided by the N value obtained in Test Example 1 to judge the selectivity of the receptor binding of the test substance.

[2] = test system: Male mice (ddY); experiment: Mouse formalin test; format: in vivo
Procedure: Male mice (ddY; 4 to 5 weeks old) were kept at a room temperature of 21 to 25° C. and a humidity of 45 to 65% in a cage having a 12-hour light/12-hour dark cycle while being fed with feed and water ad libitum, whereby being acclimatized for a period of 1 week or longer. 6 Animals in each group were employed.
The compound of Example 1 was dissolved in physiological saline. Each mouse was placed in a cylindrical tube whose diameter was about 4 cm, immobilized at its tail, and a 27G needle connected to a 1 mL syringe was inserted into its tail vein, via which 0.1 mL/10 g body weight of the drug solution was administered rapidly. In a control group, physiological saline was administered. After administration, an absorbent cotton was used for hemostasis, and the animal was returned to the observation cage. The dose of the compound of Example 1 was 1 mg or 3 mg per 1 kg body weight of each mouse.
Subsequently, each mouse was acclimatized sufficiently to the observation cage, and then placed in a retainer for the drug administration. 20 μL of a 1% formalin solution was subcutaneously administered into the plantar region of the hindpaw, and the mouse was returned to the observation cage, and examined for the duration of any aversive behavior such as licking or biting the administered hindpaw extremity over a period of 30 minutes using a stopwatch.

T1 sequence (P35372 whole entry): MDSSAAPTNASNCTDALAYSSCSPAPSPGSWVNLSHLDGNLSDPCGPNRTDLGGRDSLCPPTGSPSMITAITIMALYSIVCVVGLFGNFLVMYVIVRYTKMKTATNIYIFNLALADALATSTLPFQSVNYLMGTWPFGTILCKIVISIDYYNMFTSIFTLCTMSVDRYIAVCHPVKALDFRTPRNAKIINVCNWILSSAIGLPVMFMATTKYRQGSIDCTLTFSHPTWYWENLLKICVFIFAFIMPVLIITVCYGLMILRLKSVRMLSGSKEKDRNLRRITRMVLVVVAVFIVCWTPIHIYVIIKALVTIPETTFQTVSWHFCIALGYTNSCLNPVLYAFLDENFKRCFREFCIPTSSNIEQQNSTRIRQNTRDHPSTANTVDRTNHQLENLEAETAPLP

Structure (SMILES)	Selectivity (M value/N value) [1]	Duration of aversive behavior ([2]; 1 mg/kg via tail vein, 0 to 10 min after formalin administration, control 128.3)	Duration of aversive behavior ([2]; 1 mg/kg via tail vein, 10 to 30 min after formalin administration, control 261.0)	Duration of aversive behavior ([2]; 3 mg/kg via tail vein, 0 to 10 min after formalin administration, control 128.3)	Duration of aversive behavior ([2]; 3 mg/kg via tail vein, 10 to 30 min after formalin administration, control 261.0)
N=C(N)NCCCCCCN[C@@H](Cc1ccc(O)cc1)C(=O)N[C@@H](Cc1ccc(O)cc1)C(=O)N[C@@H](CCCNC(=N)N)C(=O)N[C@@H](Cc1c[nH]c2ccccc12)C(N)=O [Example 1, N-α-6-Guanidinohexyl-L-tyrosyl-L-tyrosyl-L-arginyl-L-tryptophanamide]	93	80.8** sec	163.8 s	41.00** sec	112.8** sec
Cc1cc(C[C@H](NCCCCCCNC(=N)N)C(=O)N[C@@H](Cc2ccc(O)cc2)C(=O)N[C@@H](CCCNC(=N)N)C(=O)N[C@H](C)c2ccc3ccccc3c2)cc(C)c1O [Example 25, N-α-6-Guanidinohexyl-3,5-dimethyl-L-tyrosyl-L-tyrosyl-N-[(R)-1-(2-naphthyl)ethyl]-L-argininamide]	15				
Cc1cc(C[C@H](NCCCCCCNC(=N)N)C(=O)N[C@@H](Cc2cc(C)c(O)c(C)c2)C(=O)N[C@@H](CCCNC(=N)N)C(=O)N[C@H](C)c2ccc3ccccc3c2)cc(C)c1O [Example 27, N-α-6-Guanidinohexyl-3,5-dimethyl-L-tyrosyl-3,5-dimethyl-L-tyrosyl-N-[(R)-1-(2-naphthyl)ethyl]-L-argininamide]	17				
